The results in this text go back to PubChem BioAssay AID1259407 (Chemical Carcinogenesis Research Information System (CCRIS), 2018).

The test system of this data set is CCRIS mutagenicity, Ames/micronucleus/aberration tests. Kind of data set: CCRIS mutagenicity studies.
Where [1] appears, read: Test System: AMES SALMONELLA TYPHIMURIUM, Strain/Indicator: TA100, Metabolic Activation: NONE, Method: PREINCUBATION
[2] abbreviates: Test System: AMES SALMONELLA TYPHIMURIUM, Strain/Indicator: TA100, Metabolic Activation: NONE, Method: STANDARD PLATE.
The mark [3] stands for this setting: Test System: AMES SALMONELLA TYPHIMURIUM, Strain/Indicator: TA100, Metabolic Activation: RAT, LIVER, S-9, AROCLOR 1254, Method: STANDARD PLATE.
Where [4] appears, read: Test System: AMES SALMONELLA TYPHIMURIUM, Strain/Indicator: TA1535, Metabolic Activation: NONE, Method: STANDARD PLATE.
Setting [5] is: Test System: AMES SALMONELLA TYPHIMURIUM, Strain/Indicator: TA98, Metabolic Activation: NONE, Method: STANDARD PLATE.

Activity calls are given as the source filed them. No rule for the calls is given here.

For the compound `OCC1CO1` (stereo not drawn), the mutagenic call is, setting by setting: (End Point: IN VITRO CHROMOSOMAL ABERRATIONS, Test System: CHL CELLS, Metabolic Activation: NONE) “active; positive (structural changes)”; (End Point: IN VITRO CHROMOSOMAL ABERRATIONS, Test System: CHL CELLS, Metabolic Activation: RAT, LIVER, S-9, SODIUM PHENOBARBITAL AND 5,6-BENZOFLAVONE) “active; positive (structural changes)”; (Test System: AMES SALMONELLA TYPHIMURIUM, Strain/Indicator: TA97, Metabolic Activation: HAMSTER, LIVER, S-9, AROCLOR 1254, Method: PREINCUBATION) “active; positive”; (Test System: AMES SALMONELLA TYPHIMURIUM, Strain/Indicator: TA97, Metabolic Activation: NONE, Method: PREINCUBATION) “active; positive”; (Test System: AMES SALMONELLA TYPHIMURIUM, Strain/Indicator: TA97, Metabolic Activation: RAT, LIVER, S-9, AROCLOR 1254, Method: PREINCUBATION) “active; positive”; (Test System: AMES SALMONELLA TYPHIMURIUM, Strain/Indicator: TA98, Metabolic Activation: HAMSTER, LIVER, S-9, AROCLOR 1254, Method: PREINCUBATION) “active; positive”. For the same compound, the mutagenic call is, setting by setting: (Test System: AMES SALMONELLA TYPHIMURIUM, Strain/Indicator: TA98, Metabolic Activation: NONE, Method: PREINCUBATION) “active; positive”; (Test System: AMES SALMONELLA TYPHIMURIUM, Strain/Indicator: TA98, Metabolic Activation: RAT, LIVER, S-9, AROCLOR 1254, Method: PREINCUBATION) “active; positive”; (Test System: AMES SALMONELLA TYPHIMURIUM, Strain/Indicator: TA100, Metabolic Activation: HAMSTER, LIVER, S-9, AROCLOR 1254, Method: PREINCUBATION) “active; positive”; under setting [1], “active; positive”; under setting [2], “active; positive”; (Test System: AMES SALMONELLA TYPHIMURIUM, Strain/Indicator: TA100, Metabolic Activation: RAT, LIVER, S-9, AROCLOR 1254, Method: PREINCUBATION) “active; positive”. In addition, the mutagenic call runs as follows: under setting [3], “active; positive”; (Test System: AMES SALMONELLA TYPHIMURIUM, Strain/Indicator: TA100, Metabolic Activation: RAT, LIVER, S-9, PCB, Method: PREINCUBATION) “active; positive”; (Test System: AMES SALMONELLA TYPHIMURIUM, Strain/Indicator: TA1535, Metabolic Activation: HAMSTER, LIVER, S-9, AROCLOR 1254, Method: PREINCUBATION) “active; positive”; (Test System: AMES SALMONELLA TYPHIMURIUM, Strain/Indicator: TA1535, Metabolic Activation: NONE, Method: PREINCUBATION) “active; positive”; under setting [4], “active; positive”; (Test System: AMES SALMONELLA TYPHIMURIUM, Strain/Indicator: TA1535, Metabolic Activation: RAT, LIVER, S-9, AROCLOR 1254, Method: PREINCUBATION) “active; positive”. Besides, the mutagenic call by setting is: (Test System: AMES SALMONELLA TYPHIMURIUM, Strain/Indicator: TA1537, Metabolic Activation: HAMSTER, LIVER, S-9, AROCLOR 1254, Method: PREINCUBATION) “active; positive”; (Test System: AMES SALMONELLA TYPHIMURIUM, Strain/Indicator: TA1537, Metabolic Activation: NONE, Method: PREINCUBATION) “active; positive”; (Test System: AMES SALMONELLA TYPHIMURIUM, Strain/Indicator: TA1537, Metabolic Activation: RAT, LIVER, S-9, AROCLOR 1254, Method: PREINCUBATION) “active; positive”; (Test System: Ames Salmonella typhimurium, Strain/Indicator: TA98, Metabolic Activation: None, Method: Preincubation) “active; positive”; (Test System: Ames Salmonella typhimurium, Strain/Indicator: TA98, Metabolic Activation: Rat, Liver, S9, Sodium phenobarbital and 5,6-benzoflavone (10%), Method: Preincubation) “active; positive”; (Test System: Ames Salmonella typhimurium, Strain/Indicator: TA100, Metabolic Activation: None, Method: Preincubation) “active; positive”. In addition, the mutagenic call was “active; positive” (Test System: Ames Salmonella typhimurium, Strain/Indicator: TA100, Metabolic Activation: Rat, Liver, S9, Sodium phenobarbital and 5,6-benzoflavone (10%), Method: Preincubation); “active; positive” (Test System: Ames Salmonella typhimurium, Strain/Indicator: TA1535, Metabolic Activation: None, Method: Preincubation); “active; positive” (Test System: Ames Salmonella typhimurium, Strain/Indicator: TA1535, Metabolic Activation: Rat, Liver, S9, Sodium phenobarbital and 5,6-benzoflavone (10%), Method: Preincubation); “active; positive” (Test System: Ames Salmonella typhimurium, Strain/Indicator: TA1537, Metabolic Activation: None, Method: Preincubation); “inactive; negative” (Test System: Ames Salmonella typhimurium, Strain/Indicator: TA1537, Metabolic Activation: Rat, Liver, S9, Sodium phenobarbital and 5,6-benzoflavone (10%), Method: Preincubation); “active; positive” (Test System: CHINESE HAMSTER V-79, Strain/Indicator: V-79/6-THIOGUANINE, Metabolic Activation: NONE). The mutagenic call by setting is: (Test System: E. coli, Strain/Indicator: WP2uvrA/pKM101, Metabolic Activation: None, Method: Preincubation) “active; positive”; (Test System: E. coli, Strain/Indicator: WP2uvrA/pKM101, Metabolic Activation: Rat, Liver, S9, Sodium phenobarbital and 5,6-benzoflavone (10%), Method: Preincubation) “active; positive”; (Test System: MOUSE LYMPHOMA, Strain/Indicator: L5178Y (TK+/TK-), Metabolic Activation: NONE, Method: SUSPENSION/PLATE) “active; positive”.
For `OC[C@H]1O[C@@H](n2cnc3c2ncn2ccnc32)[C@H](O)[C@@H]1O`, under setting [1], the mutagenic call is “inactive; negative”.
Regarding `N[C@@H]1C[C@H]1c1ccccc1`, the mutagenic call was “inactive; negative” under setting [5]; “inactive; negative” (Test System: AMES SALMONELLA TYPHIMURIUM, Strain/Indicator: TA98, Metabolic Activation: RAT, LIVER, S-9, AROCLOR 1254, Method: STANDARD PLATE); “inactive; negative” under setting [2]; “inactive; negative” under setting [3]; “inactive; negative” under setting [4]; “inactive; negative” (Test System: AMES SALMONELLA TYPHIMURIUM, Strain/Indicator: TA1535, Metabolic Activation: RAT, LIVER, S-9, AROCLOR 1254, Method: STANDARD PLATE). In addition, the mutagenic call reads like this: (Test System: AMES SALMONELLA TYPHIMURIUM, Strain/Indicator: TA1537, Metabolic Activation: NONE, Method: STANDARD PLATE) “inactive; negative”; (Test System: AMES SALMONELLA TYPHIMURIUM, Strain/Indicator: TA1537, Metabolic Activation: RAT, LIVER, S-9, AROCLOR 1254, Method: STANDARD PLATE) “inactive; negative”.
For `C[n+]1cccc2c1C=C[C@H]1O[C@@H]21`, the mutagenic call is “inactive; negative” under setting [2] and “active; positive” (Test System: AMES SALMONELLA TYPHIMURIUM, Strain/Indicator: TA100, Metabolic Activation: RAT, LIVER, S-9, AROCLOR 1254 (20%), Method: STANDARD PLATE).
With `C=C1CC[C@H]2[C@@H](c3c(C)c(O)c4c(c31)C(=O)[C@@H](C)C4)C2(C)C`, the mutagenic call reads like this: under setting [5], “inactive; negative”; (Test System: AMES SALMONELLA TYPHIMURIUM, Strain/Indicator: TA98, Method: STANDARD PLATE) “inactive; negative”; under setting [2], “inactive; negative”; (Test System: AMES SALMONELLA TYPHIMURIUM, Strain/Indicator: TA100, Method: STANDARD PLATE) “inactive; negative”.
As to `CC(=O)OC[C@@]1(O)CC23CC[C@@H]4c5ccoc5CC[C@@]4(C)[C@@H]2CC[C@@H]1C3`, the mutagenic call runs as follows: (Test System: AMES SALMONELLA TYPHIMURIUM, Strain/Indicator: TM677, Metabolic Activation: NONE, Method: PREINCUBATION) “inactive; negative”; (Test System: AMES SALMONELLA TYPHIMURIUM, Strain/Indicator: TM677, Metabolic Activation: RAT, LIVER, S-9, AROCLOR 1254, Method: PREINCUBATION) “inactive; negative”.
Regarding `O=C1OCC(CCl)=C1Cl`, the mutagenic call under setting [2] was “active; positive”.
Consider `O=C(O)c1ccccc1C1=c2cc3c4c(c2Oc2c1cc1c5c2CCCN5CCC1)CCC[N+]=4CCC3`, for which the mutagenic call was “inactive; negative” (Test System: AMES SALMONELLA TYPHIMURIUM, Strain/Indicator: TA1538, Metabolic Activation: NONE, Method: STANDARD PLATE) and “inactive; negative” (Test System: AMES SALMONELLA TYPHIMURIUM, Strain/Indicator: TA1538, Metabolic Activation: RAT, LIVER, S-9, AROCLOR 1254, Method: STANDARD PLATE).
